Key:
Experiment in all cases: CYP inhibition assay in HLM, single concentration
Type in all cases: biochemical
CYP2B6 = target: T1, CYP2B6 (Homo sapiens, UniProt P20813); details: human liver microsomes, probe Bupropion, n = 3, read-out: % Inhibition (CYP 2B6)
T1 construct: Using HLM as the enzyme source; from tissue; host or cells: human liver microsomes
T1 sequence (P20813 1-491): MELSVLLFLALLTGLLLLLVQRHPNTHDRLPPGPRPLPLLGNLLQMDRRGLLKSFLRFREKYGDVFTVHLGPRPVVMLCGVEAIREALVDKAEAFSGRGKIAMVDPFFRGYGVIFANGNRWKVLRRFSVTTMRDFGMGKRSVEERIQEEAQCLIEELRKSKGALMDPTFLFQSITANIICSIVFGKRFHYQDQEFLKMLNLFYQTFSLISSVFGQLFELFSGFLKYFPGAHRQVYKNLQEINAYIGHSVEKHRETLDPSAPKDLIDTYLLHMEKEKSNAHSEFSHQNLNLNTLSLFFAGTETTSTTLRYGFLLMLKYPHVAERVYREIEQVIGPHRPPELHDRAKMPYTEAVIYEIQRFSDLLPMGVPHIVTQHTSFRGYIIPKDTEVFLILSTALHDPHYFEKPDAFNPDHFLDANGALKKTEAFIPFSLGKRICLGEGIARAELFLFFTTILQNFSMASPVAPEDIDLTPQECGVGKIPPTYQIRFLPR
Procedure: (§1) The regulatory bodies and pharmaceutical firms are quite concerned about CYP inhibition. Therefore, medicinal chemists often change the lead structure to decrease CYP inhibition. If left uncorrected, it can cause DDIs, enhanced drug concentration, and, thus, toxicity.
(§2) Using HLM as the enzyme source, the CYP inhibition potential was employed to assess the inhibitory effect of the TbB ligands on the CYP1A2, 2B6, 2C8, 2C9, 2C19, and 2D6 3A4 isoforms. Phenacetin (CYP1A2, […]), tolbutamide (CYP2C9, 20 mM), bupropion (CYP2B6, […]), mephenytoin (CYP2C19, […]), midazolam (CYP3A4, 5 mM), amodiaquine (CYP2C8, 0.02 mM), and dextromethorphan (CYP2D6, 5 mM) were used as probe substrates. The test substance included TbB ligand (final concentrations of […] for each) and HLMs (final concentration of 0.1 mg protein per mL), with or without 1.0 mM NADPH. The reaction was started by adding pre-incubated 25 μ L of NADPH into all wells and incubate at 37 °C for 10 min for 3A4 and 20 min for remaining all isoforms. The reaction was stopped by adding 100 μ L of stop solution to all wells. The samples were centrifuged at 4000 rpm for 10 min at 4 °C. Supernatant (100 μ L) was withdrawn, mixed with 200 μ L of water followed by LC-MS/MS analysis.

CYP3A4 = target: T2, CYP3A4 (Homo sapiens, UniProt P08684); details: human liver microsomes, probe Midazolam, n = 3, read-out: % Inhibition (CYP 3A4)
T2 construct: Using HLM as the enzyme source; from tissue; host or cells: human liver microsomes
T2 sequence (P08684 whole entry): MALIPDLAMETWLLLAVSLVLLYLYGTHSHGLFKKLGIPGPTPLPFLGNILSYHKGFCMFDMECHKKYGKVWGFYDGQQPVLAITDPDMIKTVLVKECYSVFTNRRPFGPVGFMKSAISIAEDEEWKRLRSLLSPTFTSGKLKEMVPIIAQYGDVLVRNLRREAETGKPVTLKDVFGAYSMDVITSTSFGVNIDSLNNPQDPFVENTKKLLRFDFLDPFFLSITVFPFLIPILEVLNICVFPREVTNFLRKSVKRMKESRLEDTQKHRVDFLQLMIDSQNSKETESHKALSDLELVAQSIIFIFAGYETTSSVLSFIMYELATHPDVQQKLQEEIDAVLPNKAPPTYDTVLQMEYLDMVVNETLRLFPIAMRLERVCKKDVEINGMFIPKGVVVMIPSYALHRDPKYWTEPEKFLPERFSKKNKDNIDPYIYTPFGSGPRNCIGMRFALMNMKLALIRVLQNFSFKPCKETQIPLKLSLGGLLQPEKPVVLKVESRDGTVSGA
Procedure: as §1, §2

CYP2C9 = target: T3, CYP2C9 (Homo sapiens, UniProt P11712); details: human liver microsomes, probe Tolbutamide, n = 3, read-out: % Inhibition (CYP 2C9)
T3 construct: Using HLM as the enzyme source; from tissue; host or cells: human liver microsomes
T3 sequence (P11712 whole entry): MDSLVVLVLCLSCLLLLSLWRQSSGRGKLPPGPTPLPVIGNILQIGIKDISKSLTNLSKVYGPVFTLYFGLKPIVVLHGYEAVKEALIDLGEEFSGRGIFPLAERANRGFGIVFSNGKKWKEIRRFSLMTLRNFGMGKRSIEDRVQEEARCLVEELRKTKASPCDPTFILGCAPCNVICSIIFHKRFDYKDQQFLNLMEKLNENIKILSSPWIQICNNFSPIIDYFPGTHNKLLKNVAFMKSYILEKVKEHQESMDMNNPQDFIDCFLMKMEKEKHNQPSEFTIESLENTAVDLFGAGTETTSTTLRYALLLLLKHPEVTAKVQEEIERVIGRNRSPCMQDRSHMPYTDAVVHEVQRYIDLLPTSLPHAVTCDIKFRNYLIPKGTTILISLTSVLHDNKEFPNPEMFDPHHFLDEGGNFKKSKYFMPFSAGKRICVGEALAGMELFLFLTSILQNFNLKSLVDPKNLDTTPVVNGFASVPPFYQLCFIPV
Procedure: as §1, §2

CYP2D6 = target: T4, CYP2D6 (Homo sapiens, UniProt P10635); details: human liver microsomes, probe Dextromethorphan, n = 3, read-out: % Inhibition (CYP 2D6)
T4 construct: Using HLM as the enzyme source; from tissue; host or cells: human liver microsomes
T4 sequence (P10635 whole entry): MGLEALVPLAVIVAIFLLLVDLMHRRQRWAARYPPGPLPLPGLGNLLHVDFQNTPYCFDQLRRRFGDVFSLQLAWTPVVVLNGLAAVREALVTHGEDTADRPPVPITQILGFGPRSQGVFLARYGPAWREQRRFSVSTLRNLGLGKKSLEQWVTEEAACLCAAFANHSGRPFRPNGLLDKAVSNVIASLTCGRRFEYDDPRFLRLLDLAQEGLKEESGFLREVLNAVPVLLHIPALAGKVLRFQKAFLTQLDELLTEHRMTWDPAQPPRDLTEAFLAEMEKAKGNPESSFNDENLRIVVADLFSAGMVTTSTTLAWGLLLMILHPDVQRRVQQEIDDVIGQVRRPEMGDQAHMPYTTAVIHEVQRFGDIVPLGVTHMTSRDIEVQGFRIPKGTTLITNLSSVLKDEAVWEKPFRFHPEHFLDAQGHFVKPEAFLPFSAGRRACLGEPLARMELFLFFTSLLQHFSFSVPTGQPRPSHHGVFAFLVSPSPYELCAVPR
Procedure: as §1, §2

CYP1A2 = target: T5, CYP1A2 (Homo sapiens, UniProt P05177); details: human liver microsomes, probe Phenacetin, n = 3, read-out: % Inhibition (CYP 1A2)
T5 construct: Using HLM as the enzyme source; from tissue; host or cells: human liver microsomes
T5 sequence (P05177 1-516): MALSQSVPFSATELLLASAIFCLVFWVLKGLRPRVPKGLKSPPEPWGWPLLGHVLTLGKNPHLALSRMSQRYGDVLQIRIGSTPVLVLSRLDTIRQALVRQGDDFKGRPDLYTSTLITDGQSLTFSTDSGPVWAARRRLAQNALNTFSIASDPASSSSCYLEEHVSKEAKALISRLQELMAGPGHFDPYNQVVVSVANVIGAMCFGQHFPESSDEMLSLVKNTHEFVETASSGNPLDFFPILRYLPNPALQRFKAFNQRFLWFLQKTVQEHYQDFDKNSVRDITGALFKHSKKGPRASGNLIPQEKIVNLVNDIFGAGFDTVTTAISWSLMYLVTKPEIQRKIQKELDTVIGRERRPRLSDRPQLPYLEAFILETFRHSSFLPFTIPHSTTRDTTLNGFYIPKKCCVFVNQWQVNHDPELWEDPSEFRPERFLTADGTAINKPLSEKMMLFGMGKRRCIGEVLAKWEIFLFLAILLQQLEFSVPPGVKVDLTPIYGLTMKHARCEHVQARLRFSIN
Procedure: as §1, §2

CYP2C19 = target: T6, CYP2C19 (Homo sapiens, UniProt P33261); details: human liver microsomes, probe S-Mephenytoin, n = 3, read-out: % Inhibition (CYP 2C19)
T6 construct: Using HLM as the enzyme source; from tissue; host or cells: human liver microsomes
T6 sequence (P33261 whole entry): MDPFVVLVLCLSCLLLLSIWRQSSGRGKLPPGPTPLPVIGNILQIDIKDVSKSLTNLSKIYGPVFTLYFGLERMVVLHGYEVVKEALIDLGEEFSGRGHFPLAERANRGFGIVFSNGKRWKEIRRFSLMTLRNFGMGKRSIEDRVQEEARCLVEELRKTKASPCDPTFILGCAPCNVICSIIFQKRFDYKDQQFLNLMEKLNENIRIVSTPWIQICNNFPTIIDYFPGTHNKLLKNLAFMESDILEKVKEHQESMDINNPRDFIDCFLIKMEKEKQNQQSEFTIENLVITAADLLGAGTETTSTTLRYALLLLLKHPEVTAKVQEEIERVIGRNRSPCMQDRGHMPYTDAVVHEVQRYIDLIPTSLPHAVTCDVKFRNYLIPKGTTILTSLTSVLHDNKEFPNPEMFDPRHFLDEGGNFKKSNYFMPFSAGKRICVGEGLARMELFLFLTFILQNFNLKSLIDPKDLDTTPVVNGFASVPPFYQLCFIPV
Procedure: as §1, §2

CYP2C8 = target: T7, CYP2C8 (Homo sapiens, UniProt P10632); details: human liver microsomes, probe Amodiaquine, n = 3, read-out: % Inhibition (CYP 2C8)
T7 construct: Using HLM as the enzyme source; from tissue; host or cells: human liver microsomes
T7 sequence (P10632 1-490): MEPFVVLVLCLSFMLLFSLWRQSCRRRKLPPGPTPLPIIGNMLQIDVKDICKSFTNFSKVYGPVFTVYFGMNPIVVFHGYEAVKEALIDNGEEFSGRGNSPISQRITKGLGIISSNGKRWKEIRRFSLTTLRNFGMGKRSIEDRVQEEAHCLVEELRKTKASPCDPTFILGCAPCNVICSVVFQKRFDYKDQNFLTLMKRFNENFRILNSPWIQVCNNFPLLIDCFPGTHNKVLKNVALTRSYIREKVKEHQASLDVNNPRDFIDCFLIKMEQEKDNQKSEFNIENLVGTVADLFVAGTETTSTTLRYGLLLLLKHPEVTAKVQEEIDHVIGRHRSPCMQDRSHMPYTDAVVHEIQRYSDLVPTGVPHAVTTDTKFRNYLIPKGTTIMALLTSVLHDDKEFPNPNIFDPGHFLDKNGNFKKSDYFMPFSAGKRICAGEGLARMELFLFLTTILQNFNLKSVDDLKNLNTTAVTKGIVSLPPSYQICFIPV
Procedure: as §1, §2

inhibition at 20 min, 10 µM (CYP2B6) [%]	inhibition at 10 min, 10 µM (CYP3A4) [%]	inhibition at 20 min, 10 µM (CYP2C9) [%]	inhibition at 20 min, 10 µM (CYP2D6) [%]	inhibition at 20 min, 10 µM (CYP1A2) [%]	inhibition at 20 min, 10 µM (CYP2C19) [%]	inhibition at 20 min, 10 µM (CYP2C8) [%]	Compound
80	96	82	96	40	84	88	Cc1cc(-c2nnn(-c3cc(C)c(O)c(C)c3)n2)cc(C)c1O [223-3]
54	22	90	-4	30	33	82	Oc1ccc(-c2nnn(-c3ccc(O)cc3)n2)cc1 [223-10]
47	-6	68	-2	33	-2	39	COc1cc(-c2nnn(-c3cc(OC)c(O)c(OC)c3)n2)cc(OC)c1O [223-2]

From publication PMC9921896 (Molecules, 2023)
